# Tested on: hypoxia-induced VEGF production in HeLa cells
# Experiment: cells
# Format: cell-based, human
# Conditions: Homo sapiens, HeLa
row,Structure (SMILES),EC50 [nM]
1,COc1ccc(OC(=O)N2CCc3c([nH]c4cc(F)ccc34)C2c2ccc(F)cc2)cc1 (stereo not drawn) [Compound 1458],> 1000
2,O=C(Oc1ccc(Cl)cc1)N1CCc2c([nH]c3cc(F)ccc23)C1c1ccc(F)cc1 (stereo not drawn) [Compound 1459],> 1000
3,COc1ccc(OC(=O)N2CCc3c([nH]c4cc(F)ccc34)C2c2ccc(OC)cc2)cc1 (stereo not drawn) [Compound 1460],> 1000
4,COc1ccc(C2c3[nH]c4cc(F)ccc4c3CCN2C(=O)Oc2ccc(Cl)cc2)cc1 (stereo not drawn) [Compound 1461],200 to 1000
5,COc1ccc(OC(=O)N2CCc3c([nH]c4cc(F)ccc34)C2c2ccc(OC(F)F)cc2)cc1 (stereo not drawn) [Compound 1462],200 to 1000
6,O=C(Oc1ccc(Cl)cc1)N1CCc2c([nH]c3cc(F)ccc23)C1c1ccc(OC(F)F)cc1 (stereo not drawn) [Compound 1463],40 to 200
7,CCOC(=O)N1CCc2c([nH]c3ccc(Cl)cc23)C1c1ccc(OCC(O)CNC(=O)CC)cc1 (stereo not drawn) [Compound 1464],8 to 40
8,CCOC(=O)N1CCc2c([nH]c3ccc(Cl)cc23)C1c1ccc(OCC(O)CNC(=O)C(C)C)cc1 (stereo not drawn) [Compound 1465],8 to 40
9,CCOC(=O)N1CCc2c([nH]c3ccc(Cl)cc23)C1c1ccc(OCC(O)CNC(=O)C2CC2)cc1 (stereo not drawn) [Compound 1466],8 to 40
10,CCOC(=O)N1CCc2c([nH]c3ccc(Cl)cc23)C1c1ccc(OCC(O)CNC(=O)c2ccncc2)cc1 (stereo not drawn) [Compound 1467],< 8
11,CCOC(=O)N1CCc2c([nH]c3ccc(Cl)cc23)C1c1ccc(OCC(O)CNC(=O)c2cccnc2)cc1 (stereo not drawn) [Compound 1468],< 8
12,CCOC(=O)N1CCc2c([nH]c3ccc(Cl)cc23)C1c1ccc(OCC(O)CNC(=O)c2ccccn2)cc1 (stereo not drawn) [Compound 1469],< 8
13,CCOC(=O)NCC(O)COc1ccc(C2c3[nH]c4ccc(Cl)cc4c3CCN2C(=O)OCC)cc1 (stereo not drawn) [Compound 1470],< 8
14,CCCOC(=O)NCC(O)COc1ccc(C2c3[nH]c4ccc(Cl)cc4c3CCN2C(=O)OCC)cc1 (stereo not drawn) [Compound 1471],< 8
15,CCOC(=O)N1CCc2c([nH]c3ccc(Cl)cc23)C1c1ccc(OCC(O)CNC(=O)OCCOC)cc1 (stereo not drawn) [Compound 1472],< 8
16,CCOC(=O)N1CCc2c([nH]c3ccc(Cl)cc23)C1c1ccc(OCC(O)CNS(=O)(=O)CC)cc1 (stereo not drawn) [Compound 1473],< 8
17,CCOC(=O)N1CCc2c([nH]c3ccc(Cl)cc23)C1c1ccc(OCC(O)CNS(=O)(=O)C(C)C)cc1 (stereo not drawn) [Compound 1474],8 to 40
18,CCOC(=O)N1CCc2c([nH]c3ccc(Cl)cc23)C1c1ccc(OCC(O)CNS(=O)(=O)C2CC2)cc1 (stereo not drawn) [Compound 1475],< 8
19,O=C(Oc1ccc(Cl)cc1)N1CCc2c([nH]c3ccc(Cl)cc23)C1c1ccc(OCCCN2CC[C@@H](O)C2)cc1 (stereo partly drawn) [Compound 1476],40 to 200
20,COc1ccc(C2c3[nH]c4ccc(Cl)cc4c3CCN2C(=S)Oc2ccc(C)cc2)cn1 (stereo not drawn) [Compound 1477],8 to 40
21,COc1ccc(OC(=O)N2CCc3c([nH]c4ccc(Cl)cc34)C2c2ccc(OC)nc2)cc1 (stereo not drawn) [Compound 1478],40 to 200
22,COc1ccc(C2c3[nH]c4ccc(Cl)cc4c3CCN2C(=O)Oc2ccc(Cl)cc2)cn1 (stereo not drawn) [Compound 1479],8 to 40
23,CCOC(=O)N1CCc2c([nH]c3ccc(Cl)cc23)C1c1ccc(OC)nc1 (stereo not drawn) [Compound 1480],8 to 40
24,COc1ccc(C2c3[nH]c4ccc(Cl)cc4c3CCN2C(=O)OCC(C)C)cn1 (stereo not drawn) [Compound 1481],8 to 40
25,CCOC(=O)N1CCc2c([nH]c3ccc(SC)cc23)C1c1ccc(OC)cc1 (stereo not drawn) [Compound 1482],40 to 200

row,Structure (SMILES),EC50 [nM]
1,COc1ccc(C2c3[nH]c4ccc(SC)cc4c3CCN2C(=O)Oc2ccc(Cl)cc2)cc1 (stereo not drawn) [Compound 1483],8 to 40
2,COc1ccc(OC(=O)N2CCc3c([nH]c4ccc(SC)cc34)C2c2ccc(OC)cc2)cc1 (stereo not drawn) [Compound 1484],40 to 200
3,COc1ccc(C2c3[nH]c4ccc(SC)cc4c3CCN2C(=S)Oc2ccc(F)cc2)cc1 (stereo not drawn) [Compound 1486],8 to 40
4,COc1ccc(C2NCCc3c2[nH]c2ccc(SC)cc32)cc1 (stereo not drawn) [Compound 1487],> 1000
5,CCOC(=O)N1CCc2c([nH]c3ccc([S+](C)[O-])cc23)C1c1ccc(OC)cc1 (stereo not drawn) [Compound 1488],> 1000
6,COc1ccc(C2c3[nH]c4ccc([S+](C)[O-])cc4c3CCN2C(=O)Oc2ccc(Cl)cc2)cc1 (stereo not drawn) [Compound 1489],> 1000
7,COc1ccc(OC(=O)N2CCc3c([nH]c4ccc([S+](C)[O-])cc34)C2c2ccc(OC)cc2)cc1 (stereo not drawn) [Compound 1490],> 1000
8,COc1ccc(C2c3[nH]c4ccc([S+](C)[O-])cc4c3CCN2C(=O)Oc2ccc(F)cc2)cc1 (stereo not drawn) [Compound 1491],> 1000
9,CCC(C)OC(=O)N1CCc2c([nH]c3ccc([S+](C)[O-])cc23)C1c1ccc(OC)cc1 (stereo not drawn) [Compound 1493],> 1000
10,COc1ccc(C2c3[nH]c4ccc([S+](C)[O-])cc4c3CCN2C(=O)OC(C)(C)C)cc1 (stereo not drawn) [Compound 1494],> 1000
11,COc1ccc(C2NCCc3c2[nH]c2ccc([S+](C)[O-])cc32)cc1 (stereo not drawn) [Compound 1495],> 1000
12,CCOC(=O)N1CCc2c([nH]c3ccc(S(C)(=O)=O)cc23)C1c1ccc(OC)cc1 (stereo not drawn) [Compound 1496],> 1000
13,COc1ccc(C2c3[nH]c4ccc(S(C)(=O)=O)cc4c3CCN2C(=O)Oc2ccc(Cl)cc2)cc1 (stereo not drawn) [Compound 1497],> 1000
14,COc1ccc(OC(=O)N2CCc3c([nH]c4ccc(S(C)(=O)=O)cc34)C2c2ccc(OC)cc2)cc1 (stereo not drawn) [Compound 1498],> 1000
15,COc1ccc(C2c3[nH]c4ccc(S(C)(=O)=O)cc4c3CCN2C(=O)Oc2ccc(F)cc2)cc1 (stereo not drawn) [Compound 1499],> 1000
16,COc1ccc(C2c3[nH]c4ccc(S(C)(=O)=O)cc4c3CCN2C(=S)Oc2ccc(F)cc2)cc1 (stereo not drawn) [Compound 1500],> 1000
17,COc1ccc(C2c3[nH]c4ccc(S(C)(=O)=O)cc4c3CCN2C(=O)OC(C)(C)C)cc1 (stereo not drawn) [Compound 1502],> 1000
18,COc1ccc(C2c3[nH]c4ccc(S(C)(=O)=O)cc4c3CCN2C(=S)Oc2ccc(C)cc2)cc1 (stereo not drawn) [Compound 1503],> 1000
19,COc1ccc(C2NCCc3c2[nH]c2ccc(S(C)(=O)=O)cc32)cc1 (stereo not drawn) [Compound 1504],> 1000
20,COc1ccc(C2c3[nH]c4ccc(Cl)cc4c3CCN2C(=O)[C@H](Cc2ccccc2)NC(C)=O)cc1 (stereo partly drawn) [Compound 1505],> 1000
21,CC(=O)N[C@@H](Cc1ccccc1)C(=O)N1CCc2c([nH]c3ccc(Cl)cc23)C1c1ccc(OCCN2CCOCC2)cc1 (stereo partly drawn) [Compound 1506],> 1000
22,O=C(/C=C/c1ccccc1)N1CCc2c([nH]c3ccc(Cl)cc23)C1c1ccc(OCCCn2cncn2)cc1 (stereo not drawn) [Compound 1508],8 to 40
23,C/C=C/C(=O)N1CCc2c([nH]c3ccc(Cl)cc23)C1c1ccc(OCCCN2CCOCC2)cc1 (stereo not drawn) [Compound 1509],40 to 200
24,C/C=C/C(=O)N1CCc2c([nH]c3ccc(Cl)cc23)C1c1ccc(OCCCn2cncn2)cc1 (stereo not drawn) [Compound 1510],8 to 40
25,CCOC(=O)N1CCc2c([nH]c3ccc(C#N)cc23)C1c1ccc(OC)cc1 (stereo not drawn) [Compound 1512],200 to 1000

row,Structure (SMILES),EC50 [nM]
1,COc1ccc(C2c3[nH]c4ccc(C#N)cc4c3CCN2C(=O)Oc2ccc(Cl)cc2)cc1 (stereo not drawn) [Compound 1513],40 to 200
2,COc1ccc(C2c3[nH]c4ccc(C#N)cc4c3CCN2C(=O)Oc2ccc(F)cc2)cc1 (stereo not drawn) [Compound 1514],40 to 200
3,COc1ccc(C2c3[nH]c4ccc(C#N)cc4c3CCN2C(=S)Oc2ccc(F)cc2)cc1 (stereo not drawn) [Compound 1515],40 to 200
4,COc1ccc(OC(=O)N2CCc3c([nH]c4ccc(C#N)cc34)C2c2ccc(OC)cc2)cc1 (stereo not drawn) [Compound 1516],200 to 1000
5,COc1ccc(C2NCCc3c2[nH]c2ccc(C#N)cc32)cc1 (stereo not drawn) [Compound 1519],> 1000
6,CCOC(=O)N1CCc2c([nH]c3cccc(Br)c23)C1c1ccc(OC)cc1 (stereo not drawn) [Compound 1521],200 to 1000
7,COc1ccc(C2c3[nH]c4cccc(Br)c4c3CCN2C(=O)OCCF)cc1 (stereo not drawn) [Compound 1522],200 to 1000
8,CC#CCOC(=O)N1CCc2c([nH]c3cccc(Br)c23)C1c1ccc(OC)cc1 (stereo not drawn) [Compound 1523],40 to 200
9,COc1ccc(C2c3[nH]c4cccc(Br)c4c3CCN2C(=O)Oc2ccc(F)cc2)cc1 (stereo not drawn) [Compound 1524],40 to 200
10,COc1ccc(C2c3[nH]c4cccc(Br)c4c3CCN2C(=O)Oc2ccc(Cl)cc2)cc1 (stereo not drawn) [Compound 1525],40 to 200
11,COc1ccc(C2c3[nH]c4cccc(Br)c4c3CCN2C(=O)Oc2ccc(Br)cc2)cc1 (stereo not drawn) [Compound 1526],40 to 200
12,COc1ccc(OC(=O)N2CCc3c([nH]c4cccc(Br)c34)C2c2ccc(OC)cc2)cc1 (stereo not drawn) [Compound 1527],200 to 1000
13,COc1ccc(C2c3[nH]c4cccc(Br)c4c3CCN2C(=O)Oc2ccccc2Cl)cc1 (stereo not drawn) [Compound 1528],> 1000
14,COc1ccc(C2c3[nH]c4cccc(Cl)c4c3CCN2C(=O)OCCF)cc1 (stereo not drawn) [Compound 1529],200 to 1000
15,CC#CCOC(=O)N1CCc2c([nH]c3cccc(Cl)c23)C1c1ccc(OC)cc1 (stereo not drawn) [Compound 1530],40 to 200
16,COc1ccc(C2c3[nH]c4cccc(Cl)c4c3CCN2C(=O)Oc2ccc(Cl)cc2)cc1 (stereo not drawn) [Compound 1531],40 to 200
17,COc1ccc(C2c3[nH]c4cccc(Cl)c4c3CCN2C(=O)Oc2ccc(Br)cc2)cc1 (stereo not drawn) [Compound 1532],40 to 200
18,COc1ccc(C2c3[nH]c4cccc(Cl)c4c3CCN2C(=O)Oc2ccc(F)cc2)cc1 (stereo not drawn) [Compound 1533],40 to 200
19,COc1ccc(OC(=O)N2CCc3c([nH]c4cccc(Cl)c34)C2c2ccc(OC)cc2)cc1 (stereo not drawn) [Compound 1534],200 to 1000
20,O=C(Oc1ccc(Cl)cc1)N1CCc2c([nH]c3ccc(Cl)cc23)C1c1ccc(OCCCN2CCC(O)CC2)cc1 (stereo not drawn) [Compound 1537],< 8
21,O=C(Oc1ccc(C2NCCc3c2[nH]c2ccc(Cl)cc32)cc1)c1ccccc1 (stereo not drawn) [Compound 1540],8 to 40
22,CC(C)=CC(=O)N1CCc2c([nH]c3ccc(Cl)cc23)C1c1ccc(OCCCn2cncn2)cc1 (stereo not drawn) [Compound 1542],< 8
23,CCOC(=O)N1CCc2c([nH]c3ccc(Cl)cc23)C1c1ccc(OCC#N)cc1 (stereo not drawn) [Compound 1543],< 8
24,N#CCOc1ccc(C2c3[nH]c4ccc(Cl)cc4c3CCN2C(=O)OCCF)cc1 (stereo not drawn) [Compound 1544],8 to 40
25,N#CCOc1ccc(C2c3[nH]c4ccc(Cl)cc4c3CCN2C(=O)Oc2ccc(F)cc2)cc1 (stereo not drawn) [Compound 1548],8 to 40
